Test results as given in ChEMBL document CHEMBL1201862, “PubChem BioAssay data set” (2004).
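Exposure lasted 48 hours, with cells grown in 96-well plates and compounds tested at five concentrations. GI50 is the concentration that inhibits growth by half.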 Calls of active or inactive are those of the source. Rule as the data show it: active = GI50 up to about 1.1 µM and inactive = higher.

Tests used:
Test in all cases: DTP human tumour cell line panel, 48 h
OVCAR-5 = tested on: OVCAR-5
HT-29 = tested on: HT-29
NCI-H460 = tested on: NCI-H460
HOP-62 = tested on: HOP-62
SK-MEL-2 = tested on: SK-MEL-2
MCF7 = tested on: MCF7
UACC-257 = tested on: UACC-257
COLO 205 = tested on: COLO 205
K562 = tested on: K562
HCT-116 = tested on: HCT-116
SK-OV-3 = tested on: SK-OV-3
NCI-H522 = tested on: NCI-H522
SW-620 = tested on: SW-620
SK-MEL-28 = tested on: SK-MEL-28
OVCAR-3 = tested on: OVCAR-3
SF-295 = tested on: SF-295
HOP-92 = tested on: HOP-92
MOLT-4 = tested on: MOLT-4
A549 = tested on: A549
M14 = tested on: M14

Measured: GI50

CC(C)C1CC(CO)(CNc2cc(Cl)nc(N)n2)C1 (configuration not stated)
inactive: OVCAR-5 81.8 µM | HT-29 > 100 µM | NCI-H460 30.9 µM | HOP-62 > 100 µM | SK-MEL-2 45.9 µM | MCF7 15 µM | UACC-257 1.15 µM | COLO 205 > 100 µM | K562 9.57 µM | HCT-116 41.3 µM | SK-OV-3 > 100 µM | NCI-H522 39 µM | SW-620 > 100 µM | SK-MEL-28 > 100 µM | OVCAR-3 17.9 µM | SF-295 6.22 µM | HOP-92 45 µM | MOLT-4 > 10 µM | A549 39.2 µM

CC(=O)c1cccc(NC(=O)C(=O)c2c(O)oc3ccccc3c2=O)c1
inactive: OVCAR-5 > 100 µM | HT-29 > 100 µM | NCI-H460 > 100 µM | HOP-62 > 100 µM | SK-MEL-2 10 µM | MCF7 > 100 µM | UACC-257 > 100 µM | K562 > 100 µM | HCT-116 > 100 µM | SK-OV-3 > 100 µM | NCI-H522 > 100 µM | SW-620 > 100 µM | SK-MEL-28 > 100 µM | OVCAR-3 > 100 µM | SF-295 > 100 µM | HOP-92 > 100 µM | M14 > 100 µM | MOLT-4 > 100 µM | A549 > 100 µM

COc1ccc(/C=C2/C(=O)C(c3ccccc3)N(c3ccccc3)C2=O)cc1OC (configuration not stated)
inactive: OVCAR-5 > 10 µM | HT-29 > 10 µM | NCI-H460 > 10 µM | HOP-62 > 10 µM | SK-MEL-2 > 10 µM | MCF7 > 10 µM | UACC-257 > 10 µM | COLO 205 > 10 µM | HCT-116 > 10 µM | SK-OV-3 > 10 µM | NCI-H522 > 10 µM | SW-620 > 10 µM | SK-MEL-28 > 10 µM | OVCAR-3 > 10 µM | SF-295 > 10 µM | HOP-92 > 10 µM | M14 > 10 µM | MOLT-4 > 10 µM | A549 > 10 µM

CC1=C/C(=N/N2C(=O)/C(=C/c3ccc(Cl)cc3)N=C2c2ccccc2)CC(C)(C)C1
inactive: OVCAR-5 > 100 µM | HT-29 70.5 µM | NCI-H460 > 100 µM | HOP-62 54.2 µM | SK-MEL-2 24.9 µM | MCF7 49.8 µM | UACC-257 69.2 µM | COLO 205 > 100 µM | K562 66.4 µM | HCT-116 91.8 µM | SK-OV-3 > 100 µM | NCI-H522 30 µM | SW-620 76.2 µM | SK-MEL-28 > 100 µM | SF-295 51.9 µM | HOP-92 94.8 µM | M14 > 100 µM | MOLT-4 25 µM | A549 78.2 µM

CCOC(=O)NC(NC(C)CC)(C(F)(F)F)C(F)(F)F (configuration not stated)
inactive: OVCAR-5 > 100 µM | HT-29 > 100 µM | NCI-H460 > 100 µM | HOP-62 > 100 µM | SK-MEL-2 > 100 µM | MCF7 > 100 µM | UACC-257 > 100 µM | COLO 205 > 100 µM | K562 > 100 µM | HCT-116 > 100 µM | NCI-H522 > 100 µM | SW-620 42.3 µM | SK-MEL-28 > 100 µM | OVCAR-3 > 100 µM | SF-295 > 100 µM | HOP-92 > 100 µM | M14 > 100 µM | MOLT-4 > 100 µM | A549 > 100 µM

O=[N+]([O-])c1ccc(N/N=C/CC(O)(C(F)(F)F)C(F)(F)F)c([N+](=O)[O-])c1
inactive: HT-29 4.38 µM | NCI-H460 2.97 µM | HOP-62 4.17 µM | SK-MEL-2 2.21 µM | MCF7 3.78 µM | UACC-257 3.65 µM | COLO 205 3.67 µM | K562 3.55 µM | HCT-116 3.03 µM | SK-OV-3 4.8 µM | NCI-H522 3.21 µM | SW-620 7.33 µM | SK-MEL-28 7.78 µM | OVCAR-3 2.8 µM | SF-295 3.58 µM | HOP-92 2.17 µM | M14 > 10 µM | MOLT-4 3.78 µM | A549 4.69 µM

Oc1ccc(/C=C/c2cc(O)cc3c2C(c2cc(O)cc(O)c2)C(c2ccc(O)c(O)c2)O3)cc1 (configuration not stated)
inactive: OVCAR-5 35.6 µM | HT-29 17.6 µM | HOP-62 35.9 µM | SK-MEL-2 28.4 µM | MCF7 33.3 µM | UACC-257 25.3 µM | COLO 205 19.5 µM | HCT-116 35.9 µM | SK-OV-3 32.5 µM | NCI-H522 27 µM | SW-620 39.2 µM | SK-MEL-28 25.1 µM | OVCAR-3 27.8 µM | SF-295 36.6 µM | HOP-92 37.1 µM | M14 31.9 µM | MOLT-4 11.6 µM | A549 45.6 µM
